In patent US9533973B2, “Allosteric modulators of 5-hydroxytryptamine 2C receptor (5-HT2CR)” (THE BOARD OF REGENTS OF THE UNIVERSITY OF TEXAS SYSTEM, priority 2011, dated 2017):

Test: Solubility of representative compounds (Table 1)
Assay type: physicochemical
Conditions: solvents listed

SMILES | Solubility
Cc1ccc(CC[C@H]2CCNC(C(=O)N[C@@H](CO)[C@@H](O)c3ccccc3)C2)cc1 (stereo in doubt) [CYD-6-9-1, (2S,4S)—N-((1S,2S)-1,3-dihydroxy-1-phenylpropan-2-yl)-4-(4-methylphenethyl)piperidine-2-carboxamide] | EtOH, DMSO
CC1CCC(CC[C@H]2CCNC(C(=O)N[C@@H](CO)[C@@H](O)c3ccccc3)C2)CC1 (stereo in doubt) [CYD-6-10-1, (2S,4S)—N-((1S,2S)-1,3-dihydroxy-1-phenylpropan-2-yl)-4-(2-(4-methylcyclohexyl)ethyl)piperidine-2-carboxamide] | EtOH, DMSO
CC1CCC(CC[C@@H]2CCN[C@H](C(=O)N[C@@H](CO)C(O)c3ccccc3)C2)CC1 (stereo in doubt) [CYD-6-10-2, (2S,4R)—N-((1R,2S)-1,3-dihydroxy-1-phenylpropan-2-yl)-4-(2-(4-methylcyclohexyl)ethyl)piperidine-2-carboxamide] | EtOH, DMSO
O=C(N[C@@H](CO)[C@@H](O)c1ccccc1)C1C[C@@H](C2CCCCC2)CCN1 (stereo in doubt) [CYD-6-15-1, (2S,4S)-4-cyclohexyl-N-((1S,2S)-1,3-dihydroxy-1-phenylpropan-2-yl)piperidine-2-carboxamide] | EtOH, DMSO
O=C(N[C@@H](CO)[C@@H](O)c1ccccc1)C1C[C@@H](c2ccccc2)CCN1 (stereo in doubt) [CYD-6-16-1, (2S,4S)—N-((1S,2S)-1,3-dihydroxy-1-phenylpropan-2-yl)-4-phenylpiperidine-2-carboxamide] | EtOH, DMSO
CCCCCCCCCC#Cc1ccnc(C(=O)NC(C(C)Cl)C2OC(SC)C(O)C(O)C2O)c1 (stereo not shown) [CYD-3-21, 4-Undec-1-ynyl-pyridine-2-carboxylic acid [2-chloro-1-(3,4,5-trihydroxy-6-methylsulfanyl-tetrahydro-pyran-2-yl)-propyl]-amide] | EtOH, DMSO
O=C(NC(CO)CO)c1ccccc1C1CCNCC1 [CYD-3-33, N-(1,3-Dihydroxypropan-2-yl)-2-(piperidin-4-yl)benzamide] | EtOH, DMSO H2O
O=C(NCC(O)CO)c1ccccc1C1CCNCC1 (stereo not shown) [CYD-3-35, N-(2,3-Dihydroxypropyl)-2-(piperidin-4-yl)benzamide] | EtOH, DMSO, H2O
CCCCCCCCCCC[C@H]1CCN[C@@H](C(=O)N[C@@H](CO)[C@@H](O)c2ccccc2)C1 [CYD-3-47-1, (2R,4S)—N-((1S,2S)-1,3-dihydroxy-1-phenylpropan-2-yl)-4-undecylpiperidine-2-carboxamide] | EtOH, DMSO
CCCCCCCCCCC[C@@H]1CCN[C@H](C(=O)N[C@@H](CO)[C@@H](O)c2ccccc2)C1 [CYD-3-47-2, (2S,4R)—N-((1S,2S)-1,3-dihydroxy-1-phenylpropan-2-yl)-4-undecylpiperidine-2-carboxamide] | EtOH, DMSO
O=C(NCC(O)CO)C1CNCCN1c1ccccc1 (stereo not shown) [CYD-3-49, N-(2,3-Dihydroxypropyl)-1-phenylpiperazine-2-carboxamide] | EtOH, DMSO, H2O
O=C(N[C@@H](CO)[C@@H](O)c1ccccc1)c1ccccc1C1CCNCC1 [CYD-3-50, N-((1S,2S)-1,3-dihydroxy-1-phenylpropan-2-yl)-2-(piperidin-4-yl)benzamide] | EtOH, DMSO, H2O
CS[C@H]1O[C@H]([C@H](NC(=O)C2CC(CCc3ccccc3)CCN2)[C@@H](C)O)[C@H](O)[C@H](O)[C@H]1O (stereo partly drawn) [CYD-3-61, 2,4-cis-4-Phenethyl-piperidine-2-carboxylic acid [2-hydroxy-1-(3,4,5-trihydroxy-6-methylsulfanyl-tetrahydro-pyran-2-yl)-propyl]-amide] | EtOH, DMSO
CS[C@H]1O[C@H]([C@H](NC(=O)C2CC(CCC3CCCCC3)CCN2)[C@@H](C)O)[C@H](O)[C@H](O)[C@H]1O (stereo partly drawn) [CYD-3-62, 2,4-cis-4-(2-Cyclohexyl-ethyl)-piperidine-2-carboxylic acid [2-hydroxy-1-(3,4,5-trihydroxy-6-methylsulfanyl-tetrahydro-pyran-2-yl)-propyl]-amide] | EtOH, DMSO
CCCCCCCCCCC[C@@H]1CCN[C@H](C(=O)N[C@H](CO)[C@H](O)c2ccccc2)C1 [CYD-5-68-1, (2S,4R)—N-((1R,2R)-1,3-dihydroxy-1-phenylpropan-2-yl)-4-undecylpiperidine-2-carboxamide] | EtOH, DMSO
CCCCCCCCCCC[C@H]1CCN[C@@H](C(=O)N[C@H](CO)[C@H](O)c2ccccc2)C1 [CYD-5-68-2, (2R,4S)—N-((1R,2R)-1,3-dihydroxy-1-phenylpropan-2-yl)-4-undecylpiperidine-2-carboxamide] | EtOH, DMSO

SMILES | Solubility
CCCCCCCCCCC[C@H]1CCN[C@@H](C(=O)N[C@@H](CO)[C@@H](O)c2ccc(SC)cc2)C1 [CYD-5-77-1, (2R,4S)—N-((1S,2S)-1,3-dihydroxy-1-(4-(methylthio)phenyl)propan-2-yl)-4-undecylpiperidine-2-carboxamide] | EtOH, DMSO
CCCCCCCCCCC[C@@H]1CCN[C@H](C(=O)N[C@@H](CO)[C@@H](O)c2ccc(SC)cc2)C1 [CYD-5-77-2, (2S,4R)—N-((1S,2S)-1,3-dihydroxy-1-(4-(methylthio)phenyl)propan-2-yl)-4-undecylpiperidine-2-carboxamide] | EtOH, DMSO
CCCCCCCCCCC[C@H]1CCN[C@@H](C(=O)N[C@@H](CO)[C@@H](O)c2ccc(S(C)(=O)=O)cc2)C1 [CYD-5-80-1, (2R,4S)—N-((1S,2S)-1,3-dihydroxy-1-(4-(methylsulfonyl)phenyl)propan-2-yl)-4-undecylpiperidine-2-carboxamide] | EtOH, DMSO
CCCCCCCCCCC[C@@H]1CCN[C@H](C(=O)N[C@@H](CO)[C@@H](O)c2ccc(S(C)(=O)=O)cc2)C1 [CYD-5-80-2, (2S,4R)—N-((1S,2S)-1,3-dihydroxy-1-(4-(methylsulfonyl)phenyl)propan-2-yl)-4-undecylpiperidine-2-carboxamide] | EtOH, DMSO
O=C(N[C@H](CO)[C@H](O)c1ccccc1)[C@@H]1C[C@H](CCc2ccccc2)CCN1 [CYD-5-100-1, (2S,4R)—N-((1R,2R)-1,3-dihydroxy-1-phenylpropan-2-yl)-4-phenethylpiperidine-2-carboxamide] | EtOH, DMSO
O=C(N[C@H](CO)[C@H](O)c1ccccc1)[C@H]1C[C@@H](CCc2ccccc2)CCN1 [CYD-5-100-2, (2R,4S)—N-((1R,2R)-1,3-dihydroxy-1-phenylpropan-2-yl)-4-phenethylpiperidine-2-carboxamide] | EtOH, DMSO
O=C(N[C@H](CO)[C@H](O)c1ccccc1)[C@@H]1C[C@H](CCC2CCCCC2)CCN1 [CYD-6-1-1, (2S,4R)-4-(2-cyclohexylethyl)-N-((1R,2R)-1,3-dihydroxy-1-phenylpropan-2-yl)piperidine-2-carboxamide] | EtOH, DMSO
O=C(N[C@H](CO)[C@H](O)c1ccccc1)[C@H]1C[C@@H](CCC2CCCCC2)CCN1 [CYD-6-1-2, (2R,4S)-4-(2-cyclohexylethyl)-N-((1R,2R)-1,3-dihydroxy-1-phenylpropan-2-yl)piperidine-2-carboxamide] | EtOH, DMSO
CC(C)(C)c1ccc(CC[C@@H]2CCN[C@H](C(=O)N[C@H](CO)[C@H](O)c3ccccc3)C2)cc1 [CYD-6-2-1, (2S,4R)-4-(4-(tert-butyl)phenethyl)-N-((1R,2R)-1,3-dihydroxy-1-phenylpropan-2-yl)piperidine-2-carboxamide] | EtOH, DMSO
CC(C)(C)c1ccc(CC[C@H]2CCN[C@@H](C(=O)N[C@H](CO)[C@H](O)c3ccccc3)C2)cc1 [CYD-6-2-2, (2R,4S)-4-(4-(tert-butyl)phenethyl)-N-((1R,2R)-1,3-dihydroxy-1-phenylpropan-2-yl)piperidine-2-carboxamide] | EtOH, DMSO
Cc1ccc(CC[C@@H]2CCN[C@H](C(=O)N[C@@H](CO)[C@@H](O)c3ccccc3)C2)cc1 [CYD-6-9-2, (2S,4R)—N-((1S,2S)-1,3-dihydroxy-1-phenylpropan-2-yl)-4-(4-methylphenethyl) piperidine-2-carboxamide] | EtOH, DMSO
O=C(N[C@@H](CO)[C@@H](O)c1ccccc1)[C@@H]1C[C@H](C2CCCCC2)CCN1 [CYD-6-15-2, (2S,4R)-4-cyclohexyl-N-((1S,2S)-1,3-dihydroxy-1-phenylpropan-2-yl)piperidine-2-carboxamide] | EtOH, DMSO
O=C(N[C@@H](CO)[C@@H](O)c1ccccc1)[C@@H]1C[C@H](c2ccccc2)CCN1 [CYD-6-16-2, (2S,4R)—N-((1S,2S)-1,3-dihydroxy-1-phenylpropan-2-yl)-4-phenylpiperidine-2-carboxamide] | EtOH, DMSO
c1ccc(N2CCNCC2CN2CCCCC2)cc1 (stereo not shown) [JZ-1-34] | EtOH, DMSO
c1ccc(N2CCN(CC3CNCCN3c3ccccc3)CC2)cc1 (stereo not shown) [JZ-1-35] | EtOH, DMSO
